Key:
[1] = biological target: T1, IGF-IR (Homo sapiens, UniProt P08069); assay: Human IGF-IR binding ELISA; parameters: recombinant extracellular portion of human IGF-IR was used to screen; conditions: full IgG; 50% binding relative to saturation; read-out: Binding (ED50)
Description: Binding results were determined by human IGF-IR ELISA and represent the concentration of titered antibody necessary to achieve 50% binding relative to saturation. Blocking results represent the level of antibody necessary to inhibit 50% binding of ^125I-IGF-I ligand to immobilized human IGF-IR. Affinity was determined by BIAcore analysis according to manufacturer's specifications (Pharmacia BIACORE 3000). Soluble IGF-IR was immobilized on the sensor chips and antibody binding kinetics determined.

[2] = biological target: T1, IGF-IR; assay: IGF-I mediated IGF-IR auto-phosphorylation, western blot; assay type: cell-based; parameters: endogenous in cells; HT-29; BxPC-3; HEL
[3] = tested on: Akt; assay: IGF-I mediated Akt phosphorylation, western blot; assay type: cell-based, human; conditions: MCF7 cells; IGF-I stimulated; A12 even at 10 nM
Description: To visualize the inhibitory effect of the anti-IGF-IR antibodies on IGF-I signaling, receptor auto-phosphorylation and downstream effector molecule phosphorylation analysis was performed in the presence or absence of antibody A12 or 2F8. The MCF7 human breast cancer cell line was selected for use due to its high IGF-IR density. Cells were plated into 10 cm or 6 well culture dishes and grown to 70-80% confluence. The monolayers were then washed twice in PBS and cultured overnight in serum free defined medium. Anti-IGF-IR antibody was then added in fresh serum-free media (100 nM-10 nM) and incubated cells 30 minutes before addition of ligand (10 nM). Cells were incubated with ligand for 10 minutes, then placed on ice and washed with ice-cold PBS. […] Tyrosine phosphorylated protein was detected on the blot using an anti-p-tyrosine antibody (Cell Signaling #9411) and an anti-mouse-HRP secondary antibody. IGF-IR was detected with monoclonal antibody C-20 (Santa Cruz). For Akt phosphorylation, phospho-Akt was detected with antibody #559029 and total Akt with #559028 (BD Pharmingen). For MAPK phosphorylation, phospho-p44/42 was detected with #9101 and total p44/42 with #9102 (Cell Signaling Tech.). […]

[4] = biological target: T2, IGF-IR on MCF7 cells (Homo sapiens, UniProt P08069); assay: IGF-IR surface receptor density by FACS; assay type: cell-based; conditions: MCF7 cells incubated at 4° C.
T2 construct: endogenous in cells
Description: IGF-IR surface receptor density was determined by FACS. […] Cells were washed in ice-cold PBS/5% BSA twice, and 1×10^6 cells were aliquoted to staining tubes and placed on ice. An IGF-IR alpha-polypeptide specific, non-blocking mouse monoclonal antibody (Ab-1, NeoMarkers, Fremont, Calif.), was then incubated with cells at 4° C. for 2 h. After PBS/BSA washes, cells were incubated with anti-mouse IgG phycoerythrin-conjugated secondary antibody (PharMingen, BD Biosciences) for 1 h on ice. After PBS/BSA wash, cells were analyzed by fluorescence-activated cell-sorting assay using a FACSvantage SE flow cytometer (BD Bioscience).

[5] = tested on: HT-29 human colon carcinoma; assay: HT-29 xenograft, A12 with CPT-11 or paclitaxel; assay type: in vivo, nu/nu mice
Description: […] nu/nu mice were injected subcutaneously with HT-29 human colon carcinoma cell suspension, at 5×10^6 cells in 0.4 ml mixed 1:1 with Matrigel. […] All treatments were administered by intraperitoneal injection.
Treatment continued for six weeks and tumor measurements were recorded twice weekly using the formula Volume=(π/6)l×w^2. At day 21 four animals per group were sacrificed and the tumors resected for histological evaluation. Treatment and tumor measurements continued on the remaining animals until day 40. At that time final tumor measurements were recorded, animals sacrificed, and four per group had tumor resected for endpoint histological evaluation.

[6] = biological target: T3, insulin receptor (IR) (Homo sapiens, UniProt P06213); assay: Blocking of radiolabeled insulin binding to ZR-75I cells; conditions: ZR-75I breast cancer cells; antibody up to 200 nM
T3 construct: endogenous in cells; host or cells: ZR-75I human breast cancer cells

[7] = tested on: BxPC-3 human pancreatic carcinoma cells; assay: BxPC-3 xenograft, A12 with CPT-11 or gemcitabine; assay type: in vivo, athymic nu/nu mice
Description: Athymic nu/nu mice were injected subcutaneously with 2×10^6 BxPC-3 human pancreatic carcinoma cells mixed 1:1 with Matrigel. […] All treatments were administered by intraperitoneal injection. Tumor measurements were recorded twice weekly using the formula Volume=(π/6)l×w^2.
At day 18 three animals per group were sacrificed and the tumors resected for midpoint histological evaluation. Treatment and tumor measurements continued on the remaining animals until day 44 with the exception of the TBS group. […] At termination of the study final tumor measurements were recorded, animals sacrificed, and four per group had tumors resected for endpoint histological evaluation.

EC50 [1]: 0.3 nM
inhibition of IGF-IR auto-phosphorylation ([2]; BxPC-3 pancreatic cancer cells): inhibited auto-phosphorylation of IGF-IR
inhibition of IGF-IR auto-phosphorylation ([2]; HT-29 colorectal cancer cells): inhibited auto-phosphorylation of IGF-IR
agonist activity: receptor phosphorylation by antibody alone ([2]; MCF7 cells, serum deprived, no ligand): did not induce receptor phosphorylation
shift of surface IGF-IR fluorescence intensity [4]: shift was not seen
Substance: A12: fully human IgG1 anti-IGF-IR antibody, lambda light chain; VH SEQ ID NO:2, VL SEQ ID NO:10; affinity matured from 2F8
block of IGF-IR phosphorylation ([2]; MCF7 cells, 10 nM IGF-I): nearly completely blocked phosphorylation
inhibition of Akt phosphorylation [3]: significantly inhibited Akt phosphorylation
T/C % ([5]; day 12, ip, A12 1 mg 3 times per week, irinotecan 2 mg or paclitaxel 121 μg every 7 days): 69%
T/C % ([5]; day 15, same regimens): 62%
T/C % ([5]; day 19, same regimens): 64%
T/C % ([5]; day 22, same regimens): 58%
T/C % ([5]; day 26, same regimens): 62%
T/C % ([5]; day 29, same regimens): 61%
T/C % ([5]; day 33, same regimens): 58%
T/C % ([5]; day 36, same regimens): 53%
T/C % ([5]; day 40, same regimens): 54%
inhibition of growth of HT-29 xenografts compared to TBS control ([5]; single agent): significantly (P<0.02) inhibited
blocking of insulin binding [6]: neither 2F8 nor the high affinity A12 antibody blocked insulin binding
animals with partial tumor regressions ([7]; after five weeks of treatment): 2 of eight
Regressions (individual tumor volumes < day 1 of treatment) ([7]; day 19, animals regressing/animals in group): 2/12
T/C % ([7]; day 19, ip, A12 1 mg 3 times per week, irinotecan 1 mg or gemcitabine 2.5 mg every 7 days): 57%
Regressions (individual tumor volumes < day 1 of treatment) ([7]; day 23): 2/9
T/C % ([7]; day 23, same regimens): 49%
Regressions (individual tumor volumes < day 1 of treatment) ([7]; day 26): 2/9
T/C % ([7]; day 26, same regimens): 40%
Regressions (individual tumor volumes < day 1 of treatment) ([7]; day 30): 2/8
T/C % ([7]; day 30, same regimens): 40%
Regressions (individual tumor volumes < day 1 of treatment) ([7]; day 32): 2/8
T/C % ([7]; day 32, same regimens): 39%
Regressions (individual tumor volumes < day 1 of treatment) ([7]; day 37): 2/8
Regressions (individual tumor volumes < day 1 of treatment) ([7]; day 41): 2/8
Regressions (individual tumor volumes < day 1 of treatment) ([7]; day 44): 2/8

— patent US7968093B2, “Fully human antibodies directed against the human insulin-like growth factor-1 receptor” (ImClone LLC, priority 2003, dated 2011)
